Measurements taken from ChEMBL document CHEMBL4118102 (J Med Chem, 2018).

Key:
[1] = target: Neuraminidase (Influenza A virus (A/Memphis/1/1971(H3N2)), UniProt P03471, E119V); set-up: species or system Influenza A virus (A/Fukui/45/2004(H3N2))
[2] = target: Neuraminidase (Influenza A virus (A/Memphis/1/1971(H3N2)), UniProt P03471, E119V); set-up: species or system Influenza A virus (A/Fukui/45/2004(H3N2)); remark: listed apart in the source

## CC(=O)N[C@@H]1[C@@H](O)[C@@H](F)[C@](F)(C(=O)O)O[C@H]1[C@H](O)CCO
[1]
  IC50: 4.4 µM
[2]
  IC50: 25.1 µM

## CC(=O)N[C@@H]1C[C@@H](F)[C@](F)(C(=O)O)O[C@H]1[C@H](O)[C@H](O)CO
[1]
  IC50: 3.67 µM
[2]
  IC50: 3.71 µM
